Measurements taken from article doi:10.1101/2019.12.17.868638v2 (biorxiv, 2019).

System: RlSQase* (sulfoquinovosidase, K375A/K376A SERp variant)
Details: 50 mM sodium phosphate, 150 mM NaCl, pH 7.2, 30 °C, 212 nM enzyme

O=[N+]([O-])c1ccc(O[C@H]2O[C@H](CS(=O)(=O)O)[C@@H](O)[C@H](O)[C@H]2O)cc1 [PNPSQ]
Km: 680 ± 250 µM
